According to patent US12433925B2, “Composition for photodynamic reaction containing extract of Ligularia fischeri as an effective ingredient, antimicrobial, antifungal and sterilization composition including the same, and sterilization method using the composition for photodynamic reaction” (KOREA INSTITUTE OF SCIENCE AND TECHNOLOGY, priority 2020, dated 2025):

Assays:
[1] = tested on: Staphylococcus aureus KCTC 3881; test: Mouse splinted excisional wound model, wound size by caliper; assay type: in vivo, BALB/c mouse; details: no red light
Method: (§1) A 7-week-old male BALB/c mouse (BALB-cAnNCr1jOri, Orientbio, Seongnam, South Korea) was housed for a week in a sterile animal room (SPF, Specific pathogen free) with a controlled air temperature of 22±2° C., a humidity of 50±10%, and the cycle of 12 hours of light and 12 hours of dark. The mice were anesthetized through an avertin intraperitoneal injection, a 5 mm wound was made therein using a biopsy patch, and a central portion of silicone drilled to an outside diameter of 15 mm and an inside diameter of 5 mm was stuck to fit the wound. Then, in the case of the experimental group, 10 μL of a physiological buffer solution (PBS) containing 10^9 CFU/mL of Staphylococcus aureus KCTC 3881 (S.A. bacterium) was inoculated into the wound site, which was then clogged with Tegaderm, and the back of the mice was wrapped with a compression bandage so that the wound site was not in contact with the outside.
Two days after the infection with Staphylococcus aureus, in the case of the group treated with Ligularia fischeri ethanol according to Preparation Example 1(1), the wound was treated with 10 μL of a Ligularia fischeri ethanol extract (20 μg/mL), and in the case of the red light treated group, the wound was treated with red light LED (wavelength: 660 nm, 120 W/m^2) for 15 minutes. In addition, in the case of the Ligularia fischeri ethanol extract according to Preparation Example 1(1) and the red light-treated group, 10 μL of the Ligularia fischeri ethanol extract (20 μg/mL) was treated on the wound for 30 minutes and then red light (120 W/m^2) was treated for 15 minutes. […]
The wound was treated in the same manner as above, even 4, 6, and 8 days after infection with Staphylococcus aureus, and the image of the wound site was obtained on Day 2, 4, 6, and 8 after infection with Staphylococcus aureus. The width and height of the wound site were measured using a caliper and the product obtained by multiplying the width with the height was used to calculate the wound size in mm^2. […]

[2] = tested on: Staphylococcus aureus KCTC 3881; test: Mouse splinted excisional wound model, wound closure by H&E histology (distance between epidermis tips); assay type: in vivo, BALB/c mouse; details: no red light
Method: as §1
Two days after the infection with Staphylococcus aureus, in the case of the group treated with Ligularia fischeri ethanol according to Preparation Example 1(1), the wound was treated with 10 μL of a Ligularia fischeri ethanol extract (20 μg/mL), and in the case of the red light treated group, the wound was treated with red light LED (wavelength: 660 nm, 120 W/m^2) for 15 minutes. […]
A wound size measurement is a measurement of apparently appearing wound scab and requires the task of histologically confirming whether the wound has been closed by an epidermis actually newly created inside the scab. To this end, the distance between the wound epidermis was measured. […]
Example 1(1)+red light), and the ampicillin-treated group (S.A.bacteria+Ampicillin) on Day 8 after the wound is infected with Staphylococcus aureus (S.A.bacteria). […] At this time, statistical significance between Control (PBS) and S. A. bacteria-treated group was expressed as ^##p<0.001. Statistical significance with S. A. bacteria-treated group-treated group was expressed as *p<0.05 or […]. […]

With `CC1(C)S[C@@H]2[C@H](NC(=O)[C@H](N)c3ccccc3)C(=O)N2[C@H]1C(=O)O` [ampicillin, Ampicillin] the “wound size compared to the group treated with S.A. bacteria” value ([1]; Day 8, infected wound) was “no significant difference in wound size”, the “wound size, % of the initial wound size” value ([1]; Day 8, wound infected with S.A. bacteria, topical 10 μL) was 53.7% and the “change in wound size, uninfected (PBS) wound” value ([1]; PBS (no S.A. infection)) was “the change in wound size did not occur over time”. The “wound closure (epidermis formation, H&E)” value ([2]; Day 8, PBS (uninfected) wound) was “completely closed”, the “distance between epithelial tips (wound maintained)” value ([2]; Day 8, infected wound) was 16.6% and the “histological wound size compared to the S.A. bacteria-treated group” value ([2]; Day 8, infected wound) was “reduced”.
